For 19 compounds, IC50 and GI50 results are on record in patent publication US10822334B2, “ErbB receptor inhibitors” (Dizal (Jiangsu) Pharmaceutical Co., Ltd., priority 2018, dated 2020).

Assay type in all cases: cell-based
One test addresses WT EGFR (Homo sapiens (Human), UniProt P00533). The experiment in a line: EGFR (Y1068) phosphorylation in NCI-H838 cells (MSD). Conditions: p-EGFR (Y1068)/total EGFR, 4 h, hEGF stimulation.
The next test deals with WT HER2 (Homo sapiens (Human), UniProt P04626). Briefly: HER2 (Y1248) phosphorylation in BT474 cells (MSD). The note with it: p-HER2 (Y1248)/total HER2, 4 h, read-out: HER2 WT Amplification BT474 IC50. Here is the method:
The plates were incubated for 4 h at 37° C. with 5% CO2 and then the HER2 (Y1248) phosphorylation level of cells in each well were measured with MSD Kit (Phospho-ErbB2 ([…]) Assay Whole Cell Lysate Kit: Cat # […]-3). The assay is a electrochemiluminescent method (MESO SCALE DISCOVERY) for determining both phosphorylated and total HER2 of cells with an MSD SECTOR® Imager and then the ratio of p-HER2/total HER2 can be generated by the machine.

In a further test the test system is BT474 cells. The experiment in a line: BT474 anti-proliferation assay (MTS). The note with it: Homo sapiens, BT-474; BT474 cells, 72 h, MTS; read-out: HER2 WT Amplification BT474 GI50. Here is the method:
A compound's activity of selective inhibition for HER2 wild type amplification can be evaluated with BT474 cell line (ATCC® HTB-20™). The cell line expressed phosphorylated HER2 protein and its proliferation depended on the amplified gene, which could be used for in vitro PD and anti-proliferation assays.
The anti-proliferation activity of compounds were determined as following procedure: The BT474 cells were sorted in 384 well plates with the DMEM medium containing 10% FBS and […] overnight and then dosed with tested compounds at a series of concentrations (30 μM, 10 μM, 3 μM, 0.3 μM, 0.1 μM, 0.03 μM, 0.01 μM, 0.001 μM) on next day. Meanwhile, another cells plate was prepared for measuring GO value on next day. The dosed plates were incubate for 72h at 37° C. with 5% CO2 and the number of viable cells in each well of GO or dosed plates were measured by MTS (CellTiter 96® AQueous One Solution Cell Proliferation Assay, Promega) endpoint. This assay is a colorimetric method for determining the number viable cells in the proliferation assay. Detection reagents (5 μl) was dispensed into per well, and the plates were incubated for 2 hrs at room temperature. Then, absorbance at 490 nm and 650 nm (reference wavelength) in each well was measured using the safile II. (Tecan). The percentage of proliferation was got from the formula: % Proliferation=100×(G3 value of sample well-Go value)/(G3 value of DMSO control-Go value). The GI50 values were further calculated as the compounds concentration required for 50% Proliferation in best-fit curves using Genedata Screener® software.

One may read the IC50 as the midpoint of a concentration-inhibition curve. One may read the GI50 as the concentration that inhibits growth by half.

Sequence of WT EGFR (P00533 25-1210): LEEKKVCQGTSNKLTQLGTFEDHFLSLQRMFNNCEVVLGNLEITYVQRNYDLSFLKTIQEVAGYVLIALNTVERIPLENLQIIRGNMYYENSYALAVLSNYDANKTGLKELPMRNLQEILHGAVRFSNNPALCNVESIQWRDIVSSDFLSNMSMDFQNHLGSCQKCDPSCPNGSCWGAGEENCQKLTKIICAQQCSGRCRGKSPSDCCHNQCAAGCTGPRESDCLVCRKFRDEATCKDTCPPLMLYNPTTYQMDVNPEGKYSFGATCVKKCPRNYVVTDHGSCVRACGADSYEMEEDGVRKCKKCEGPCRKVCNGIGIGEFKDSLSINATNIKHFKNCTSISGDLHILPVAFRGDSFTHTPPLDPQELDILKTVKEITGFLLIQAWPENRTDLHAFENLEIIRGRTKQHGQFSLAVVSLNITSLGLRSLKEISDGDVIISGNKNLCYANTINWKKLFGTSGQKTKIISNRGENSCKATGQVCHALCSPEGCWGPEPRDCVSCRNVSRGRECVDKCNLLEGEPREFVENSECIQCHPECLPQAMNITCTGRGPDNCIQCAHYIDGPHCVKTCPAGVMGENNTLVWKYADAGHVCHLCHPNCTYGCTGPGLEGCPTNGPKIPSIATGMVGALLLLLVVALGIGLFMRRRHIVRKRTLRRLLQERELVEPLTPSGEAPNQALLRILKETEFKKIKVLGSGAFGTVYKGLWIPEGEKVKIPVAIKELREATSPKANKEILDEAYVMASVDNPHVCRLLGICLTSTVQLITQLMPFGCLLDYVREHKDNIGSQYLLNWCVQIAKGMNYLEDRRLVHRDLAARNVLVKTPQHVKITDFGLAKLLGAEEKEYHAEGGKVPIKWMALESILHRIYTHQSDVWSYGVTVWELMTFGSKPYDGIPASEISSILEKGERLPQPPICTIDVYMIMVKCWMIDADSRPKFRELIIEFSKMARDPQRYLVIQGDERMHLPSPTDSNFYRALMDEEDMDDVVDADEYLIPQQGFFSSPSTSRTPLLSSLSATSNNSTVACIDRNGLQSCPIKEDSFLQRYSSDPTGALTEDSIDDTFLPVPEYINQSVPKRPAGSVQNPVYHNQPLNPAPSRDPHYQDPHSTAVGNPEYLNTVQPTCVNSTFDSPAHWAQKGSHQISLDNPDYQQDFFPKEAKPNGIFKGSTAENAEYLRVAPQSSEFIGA
Sequence of WT HER2 (P04626 23-1255): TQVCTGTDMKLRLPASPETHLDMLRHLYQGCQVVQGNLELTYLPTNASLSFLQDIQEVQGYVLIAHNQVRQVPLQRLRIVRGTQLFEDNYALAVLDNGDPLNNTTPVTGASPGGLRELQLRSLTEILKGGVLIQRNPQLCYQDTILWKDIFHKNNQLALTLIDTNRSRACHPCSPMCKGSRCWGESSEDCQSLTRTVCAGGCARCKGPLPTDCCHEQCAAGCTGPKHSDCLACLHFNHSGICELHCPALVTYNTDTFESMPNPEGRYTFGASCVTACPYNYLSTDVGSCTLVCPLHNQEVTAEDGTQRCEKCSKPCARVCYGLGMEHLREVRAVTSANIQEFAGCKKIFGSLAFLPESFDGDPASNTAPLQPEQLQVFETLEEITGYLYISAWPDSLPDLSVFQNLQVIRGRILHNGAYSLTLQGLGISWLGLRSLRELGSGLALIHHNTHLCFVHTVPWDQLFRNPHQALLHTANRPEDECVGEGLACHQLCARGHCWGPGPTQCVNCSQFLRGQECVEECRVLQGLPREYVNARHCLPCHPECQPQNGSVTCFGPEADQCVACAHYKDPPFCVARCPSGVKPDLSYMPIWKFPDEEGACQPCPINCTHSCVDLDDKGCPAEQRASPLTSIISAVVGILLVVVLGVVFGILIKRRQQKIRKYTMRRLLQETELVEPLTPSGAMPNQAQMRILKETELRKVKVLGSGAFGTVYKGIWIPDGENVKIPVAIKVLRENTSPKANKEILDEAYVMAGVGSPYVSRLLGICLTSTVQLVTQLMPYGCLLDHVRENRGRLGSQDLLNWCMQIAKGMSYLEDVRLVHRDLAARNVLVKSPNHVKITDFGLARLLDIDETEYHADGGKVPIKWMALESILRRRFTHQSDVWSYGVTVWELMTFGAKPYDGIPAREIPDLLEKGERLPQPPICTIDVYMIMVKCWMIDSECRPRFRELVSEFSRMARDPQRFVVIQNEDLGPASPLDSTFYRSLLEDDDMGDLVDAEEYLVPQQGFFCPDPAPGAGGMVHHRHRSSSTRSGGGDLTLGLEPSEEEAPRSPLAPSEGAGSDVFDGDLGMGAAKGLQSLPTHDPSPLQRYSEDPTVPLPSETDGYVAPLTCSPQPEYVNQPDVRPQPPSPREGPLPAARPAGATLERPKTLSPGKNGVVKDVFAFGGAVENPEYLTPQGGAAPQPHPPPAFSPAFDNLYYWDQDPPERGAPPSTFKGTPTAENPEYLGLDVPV

On to `Cc1cc(Nc2ncnc3cccc(OC4CCNC(C(F)F)C4)c23)ccc1Oc1ccn2ccnc2c1` (racemic) [Compound 15, (±)-(5-(((2S,4S)-2-(difluoromethyl)piperidin-4-yl)oxy)-N-(4-(imidazo[1,2-a]pyridin-7-yloxy)-3-methylphenyl)quinazolin-4-amine], for which the half-maximal inhibitory concentration (IC50) is over 10000 nM against WT EGFR and 2.55 nM at WT HER2.
On to `[2H]C([2H])([2H])Oc1ccc2ncnc(Nc3ccc(Oc4ccn5ncnc5c4)c(C)c3)c2c1OC1CCN(C([2H])([2H])[2H])CC1(F)F` (racemic) [Compound 26, (±)-N-(4-([1,2,4]triazolo[1,5-a]pyridin-7-yloxy)-3-methylphenyl)-5-((3,3-difluoro-1-(methyl-d3)piperidin-4-yl)oxy)-6-(methoxy-d3)quinazolin-4-amine], for which the 50% growth inhibitory concentration (GI50) with BT474 cells stood at 14.1 nM. Also, the IC50 was over 10000 nM at WT EGFR and 5.84 nM at WT HER2.
The matching figures for `COc1ccc2ncnc(Nc3ccc(Oc4ccn5ncnc5c4)c(C)c3)c2c1OC1CCN(C)CC1F` (single isomer, unassigned) [Compound 3, N-(4-([1,2,4]triazolo[1,5-a]pyridin-7-yloxy)-3-methylphenyl)-5-((3-fluoro-1-methylpiperidin-4-yl)oxy)-6-methoxyquinazolin-4-amine]: 44.7 ± 4.2 nM, over 3000 nM and 26 nM.
For `COc1ccc2ncnc(Nc3ccc(Oc4ccn5ncnc5c4)c(C)c3)c2c1OC1CN(C)CCC1(F)F` (single isomer, unassigned) [Compound 5, N-(4-([1,2,4]triazolo[1,5-a]pyridin-7-yloxy)-3-methylphenyl)-5-((4,4-difluoro-1-methylpiperidin-3-yl)oxy)-6-methoxyquinazolin-4-amine] the same measures were 15.1 ± 8.19 nM, over 3000 nM and 6.83 nM.
For `Cc1cc(Nc2ncnc3cccc(OC4CCN(C)CC4(F)F)c23)ccc1Oc1ccc2c(c1)ncn2C` (single isomer, unassigned) [Compound 7, 5-((3,3-difluoro-1-methylpiperidin-4-yl)oxy)-N-(3-methyl-4-((1-methyl-1H-benzo[d]imidazol-5-yl)oxy)phenyl)quinazolin-4-amine] the same measures were 8.36 ± 0.15 nM, over 3000 nM and 5.57 nM.
With `COc1cc(OC2CCN(C)CC2(F)F)c2c(Nc3ccc(Oc4ccn5ccnc5c4)c(C)c3)ncnc2c1` (single isomer, unassigned) [Compound 8, 5-((3,3-difluoro-1-methylpiperidin-4-yl)oxy)-N-(4-(imidazo[1,2-a]pyridin-7-yloxy)-3-methylphenyl)-7-methoxyquinazolin-4-amine], the 50% growth inhibitory concentration (GI50) with BT474 cells came out at 7.47 ± 2.99 nM. In addition, the figures for the IC50 against WT EGFR and on WT HER2 were 1800 nM and 6.92 nM, respectively.
For `Cc1cc(Nc2ncnc3cccc(OC4CCN(C)CC4(F)F)c23)ccc1Oc1ccc2ccnn2c1` (single isomer, unassigned) [Compound 9, 5-((3,3-difluoro-1-methylpiperidin-4-yl)oxy)-N-(3-methyl-4-(pyrazolo[1,5-a]pyridin-6-yloxy)phenyl)quinazolin-4-amine] the same measures were 27.3 ± 14.5 nM, 1030 nM and 16.2 nM.
Regarding `Cc1cc(Nc2ncnc3cc(N)cc(OC4CCN(C)CC4(F)F)c23)ccc1Oc1ccn2ncnc2c1` (single isomer, unassigned) [Compound 10, N^4-(4-([1,2,4]triazolo[1,5-a]pyridin-7-yloxy)-3-methylphenyl)-5-((3,3-difluoro-1-methylpiperidin-4-yl)oxy)quinazoline-4,7-diamine], the GI50 in the test with BT474 cells came to 19 ± 2.46 nM. Moreover, the half-inhibitory concentration (IC50) at WT EGFR was over 3000 nM; on WT HER2 it was 7.86 nM.
As for `Cc1cc(Nc2ncnc3cccc(OC4CCN(C)CC4F)c23)ccc1Oc1ccn2ccnc2c1` (single isomer, unassigned) [Compound 11], the GI50 in the test on BT474 cells worked out at 24.6 ± 4.85 nM.
As for `CCN1CCC(Oc2cccc3ncnc(Nc4ccc(Oc5ccn6ncnc6c5)c(C)c4)c23)C(F)(F)C1` (single isomer, unassigned) [Compound 12], the GI50 with BT474 cells came to 9.02 nM. The IC50 against WT EGFR was over 3000 nM; at WT HER2, 7.56 nM.
As for `Cc1cc(Nc2ncnc3cc(OC4CCOC4)cc(OC4CCN(C)CC4(F)F)c23)ccc1Oc1ccn2ncnc2c1` (single isomer, unassigned) [Compound 18, N-(4-([1,2,4]triazolo[1,5-a]pyridin-7-yloxy)-3-methylphenyl)-5-((3,3-difluoro-1-methylpiperidin-4-yl)oxy)-7-((tetrahydrofuran-3-yl)oxy)quinazolin-4-amine], in the test with BT474 cells, the concentration for 50% growth inhibition (GI50) turned out to be 8.58 ± 3.55 nM. Also, the 50% inhibitory concentration (IC50) against WT EGFR was found to be 515 nM; on WT HER2, 12.6 nM.
For the compound `Cc1cc(Nc2ncnc3cccc(OC4CCN(C)CCC4(F)F)c23)ccc1Oc1ccn2ccnc2c1` (single isomer, unassigned) [Compound 21, 5-((5,5-difluoro-1-methylazepan-4-yl)oxy)-N-(4-(imidazo[1,2-a]pyridin-7-yloxy)-3-methylphenyl)quinazolin-4-amine], the 50% growth inhibitory concentration (GI50) in the test on BT474 cells was found to be 15.9 ± 6.57 nM. The concentration for half-maximal inhibition (IC50) at WT HER2 worked out at 61.3 ± 11.2 nM.
Take `COc1cc(OC2CCN(C)CC2(F)F)c2c(Nc3ccc(Oc4cc5ncnn5cc4F)c(C)c3)ncnc2c1` (single isomer, unassigned) [Compound 22, 5-((3,3-difluoro-1-methylpiperidin-4-yl)oxy)-N-(4-((6-fluoro-[1,2,4]triazolo[1,5-a]pyridin-7-yl)oxy)-3-methylphenyl)-7-methoxyquinazolin-4-amine]: in the test on BT474 cells, the GI50 stood at 18.6 ± 6.51 nM. Besides, the IC50 on WT EGFR turned out to be 2920 ± 2320 nM; on WT HER2 it was 11.6 ± 10.4 nM.
For `COc1ccc2ncnc(Nc3ccc(Oc4cc5ncnn5cc4F)c(C)c3)c2c1OC1CCN(C)CC1(F)F` (single isomer, unassigned) [Compound 23, 5-((3,3-difluoro-1-methylpiperidin-4-yl)oxy)-N-(4-((6-fluoro-[1,2,4]triazolo[1,5-a]pyridin-7-yl)oxy)-3-methylphenyl)-6-methoxyquinazolin-4-amine] the same measures were 11.7 nM, over 10000 nM and 6.17 nM.
For `Cc1cc(Nc2ncnc3cccc(O[C@H]4C[C@H]5CC[C@@H](C4)N5CC(F)F)c23)ccc1Oc1ccn2ncnc2c1` [Compound 2, N-(4-([1,2,4]triazolo[1,5-a]pyridin-7-yloxy)-3-methylphenyl)-5-(((1R,3r,5S)-8-(2,2-difluoroethyl)-8-azabicyclo[3.2.1]octan-3-yl)oxy)quinazolin-4-amine], the 50% growth inhibitory concentration (GI50) with BT474 cells was found to be 19 ± 1.4 nM. At WT HER2, the IC50 was 6.17 nM.
Turning to `COc1ccc2ncnc(Nc3ccc(Oc4ccn5ncnc5c4)c(C)c3)c2c1OC[C@H]1CC(F)(F)CCN1C` [Compound 4, (R)-N-(4-([1,2,4]triazolo[1,5-a]pyridin-7-yloxy)-3-methylphenyl)-5-((4,4-difluoro-1-methylpiperidin-2-yl)methoxy)-6-methoxyquinazolin-4-amine], the 50% growth inhibitory concentration (GI50) with BT474 cells stood at 4.33 ± 0.63 nM. In addition, the concentration for half-maximal inhibition (IC50) against WT EGFR is over 3000 nM; on WT HER2, 7.96 nM.
For `Cc1cc(Nc2ncnc3cccc(OC45CCN(CC4)CC5)c23)ccc1Oc1ccn2ccnc2c1` [Compound 13, N-(4-(imidazo[1,2-a]pyridin-7-yloxy)-3-methylphenyl)-5-(quinuclidin-4-yloxy)quinazolin-4-amine] the same measures were 49.8 ± 6.87 nM, over 3000 nM and 21.8 nM.
Take `CS(=O)(=O)CCNCc1ccc(-c2ccc3ncnc(Nc4ccc(OCc5cccc(F)c5)c(Cl)c4)c3c2)o1` [Lapatinib, reference compound]: in the test on BT474 cells, the GI50 was found to be 12.1 ± 2.78 nM.
For the compound `Cc1cc(Nc2ncnc3ccc(NC4=NC(C)(C)CO4)cc23)ccc1Oc1ccn2ncnc2c1` [ONT380, reference compound], in the test with BT474 cells, the GI50 was found to be 10.8 ± 4.13 nM. Further, the IC50 on WT EGFR was over 3000 nM; on WT HER2 it was 2 nM.
